From ChEMBL document CHEMBL1130576, “Design and synthesis of a macrocyclic E-Selectin antagonist” (Bioorg Med Chem Lett, 1997)

Experiments:
[1] = target: T1, E-selectin (Homo sapiens) (UniProt P16581); experiment: Compound was evaluated for in vitro affinity towards Selectin E, activity expressed as IC50 relative to Sialyl lewisX
T1 sequence (whole entry): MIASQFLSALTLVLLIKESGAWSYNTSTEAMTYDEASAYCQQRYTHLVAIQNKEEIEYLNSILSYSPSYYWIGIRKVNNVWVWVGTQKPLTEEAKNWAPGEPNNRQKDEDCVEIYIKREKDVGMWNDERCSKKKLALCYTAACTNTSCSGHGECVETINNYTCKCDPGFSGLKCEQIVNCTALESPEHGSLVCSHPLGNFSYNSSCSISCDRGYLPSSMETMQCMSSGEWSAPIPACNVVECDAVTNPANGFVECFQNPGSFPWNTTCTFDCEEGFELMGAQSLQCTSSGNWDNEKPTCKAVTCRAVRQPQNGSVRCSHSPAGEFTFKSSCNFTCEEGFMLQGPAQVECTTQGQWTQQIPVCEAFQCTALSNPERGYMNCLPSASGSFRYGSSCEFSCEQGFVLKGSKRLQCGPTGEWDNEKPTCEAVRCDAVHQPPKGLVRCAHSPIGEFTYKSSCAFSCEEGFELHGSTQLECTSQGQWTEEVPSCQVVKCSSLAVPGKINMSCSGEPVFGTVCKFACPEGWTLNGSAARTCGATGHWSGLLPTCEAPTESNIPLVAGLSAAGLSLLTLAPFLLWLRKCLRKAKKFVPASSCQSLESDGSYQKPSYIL

[2] = target: T1, E-selectin (Homo sapiens); experiment: Compound was evaluated for in vitro affinity towards Selectin E

RIC50 [1]	RIC50 [2]	SMILES
2.8	–	O=C1CC[C@@H]2O[C@@H](O[C@@H]3CCCC[C@H]3O[C@@H]3O[C@@H](CO)[C@H](O)[C@H](O[C@@H](Cc4ccccc4)C(=O)O)[C@H]3O1)[C@@H](O)[C@@H](O)[C@@H]2O
0.39	–	O=C(O)CC[C@@H]1O[C@@H](O[C@@H]2CCCC[C@H]2O[C@@H]2O[C@@H](CO)[C@H](O)[C@H](O[C@@H](Cc3ccccc3)C(=O)O)[C@@H]2O)[C@@H](O)[C@@H](O)[C@@H]1O
–	1	COC(=O)CCCCCCCCO[C@@H]1O[C@@H](CO)[C@@H](O[C@@H]2O[C@@H](CO)[C@H](O)[C@H](O[C@]3(C(=O)O)C[C@@H](O)[C@@H](NC(C)=O)[C@H]([C@H](O)[C@H](O)CO)O3)[C@@H]2O)[C@H](O[C@@H]2O[C@@H](C)[C@@H](O)[C@H](O)[C@@H]2O)[C@@H]1NC(C)=O
